Experimental data reported in patent publication US6369225B1, “Compounds having activity as inhibitors of cytochrome P450RAI” (Allergan Sales, Inc., priority 2000, dated 2002).

Tests used:
[1] = test system: skin of hairless mice; test: topical skin irritation test in hairless mice; assay type: in vivo, mouse; settings: topical in acetone, once daily days 1 through 5, mean ±SD, range 0-21
Excerpt: Mice were housed individually throughout the dosing period.
Doses are disclosed as nmol/25 g.
The grading scale used is as follows:
Values can range from 0-9.
Values can range from 0-8.

[2] = target: T1, P450RAI-1 (Homo sapiens, UniProt O43174); test: P450RAI-1 cell-based inhibitor assay; settings: P450RAI-1 stably transfected HeLa cells, [3H]-RA metabolism, 3 hours at 37° C.; read-out: P450RAI INHIBITION DATA INTACT HELA IC50
T1 construct: expressed in transfected cells; host or cells: HeLa cells, stably transfected, hygromycin selection
T1 sequence (O43174 1-497): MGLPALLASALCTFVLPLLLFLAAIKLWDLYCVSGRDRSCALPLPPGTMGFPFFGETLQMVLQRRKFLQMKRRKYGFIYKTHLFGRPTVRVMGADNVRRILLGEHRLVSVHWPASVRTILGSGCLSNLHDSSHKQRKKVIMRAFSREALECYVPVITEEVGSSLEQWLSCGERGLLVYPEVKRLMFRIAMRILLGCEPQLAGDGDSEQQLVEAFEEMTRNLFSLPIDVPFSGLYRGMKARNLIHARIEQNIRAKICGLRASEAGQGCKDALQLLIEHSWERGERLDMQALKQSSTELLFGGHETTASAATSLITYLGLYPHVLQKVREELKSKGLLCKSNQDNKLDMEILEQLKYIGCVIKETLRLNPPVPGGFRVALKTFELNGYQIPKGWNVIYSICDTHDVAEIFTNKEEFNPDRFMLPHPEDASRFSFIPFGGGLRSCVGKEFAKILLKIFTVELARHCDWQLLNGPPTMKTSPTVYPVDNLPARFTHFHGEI
Description: P450RAI-1 stably transfected HeLa cells are maintained in […] tissue culture dishes in Modified Eagle's Medium (MEM) containing 10% Fetal Bovine Serum (FBS) and 100 μg/ml hygromycin. Exponentially growing cells are harvested by incubating in trypsin. Cells are then washed with 1× Phosphate Buffered Saline (PBS) and plated in a 48-well plate at 5×10^5 cells in 0.2 ml MEM medium containing 10% FBS and 0.05 μCi[^3H]-RA in the presence or absence of increasing concentrations of the test compounds. The compounds are diluted in 100% DMSO and then added in triplicate wells at either 10, 1 or 0.1 μM final concentration. As a positive control for RA metabolism inhibition, cells are also incubated with ketoconazole at 100, 10 and 1 μM. Cell are incubated for 3 hours at 37° C. […] The water soluble radioactivity is quantified using a β-scintillation counter. IC50 values represent the concentration of inhibitor required to inhibit all-trans-RA metabolism by 50 percent and are derived manually from log-transformed data.

[3] = target: T2, RARα (Homo sapiens, UniProt P10276); test: ligand binding assay, RARα; settings: Kd line of EC50/(EFFICACY)/Kd, read-out: RAR Kd α
T2 sequence (P10276 1-462): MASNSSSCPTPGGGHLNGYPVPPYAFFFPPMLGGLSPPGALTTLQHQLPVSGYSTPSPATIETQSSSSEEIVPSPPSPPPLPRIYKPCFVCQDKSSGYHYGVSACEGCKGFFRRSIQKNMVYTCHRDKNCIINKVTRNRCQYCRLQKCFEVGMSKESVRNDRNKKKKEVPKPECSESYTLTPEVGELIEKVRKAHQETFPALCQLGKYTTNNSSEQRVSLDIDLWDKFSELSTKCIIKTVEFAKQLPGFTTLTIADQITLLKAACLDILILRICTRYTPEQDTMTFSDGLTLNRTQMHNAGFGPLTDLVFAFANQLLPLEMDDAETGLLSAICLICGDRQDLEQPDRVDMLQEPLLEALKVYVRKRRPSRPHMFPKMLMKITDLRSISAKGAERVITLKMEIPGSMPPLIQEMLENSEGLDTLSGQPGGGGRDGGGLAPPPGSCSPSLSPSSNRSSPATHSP
Excerpt: (§1) Assays described below measure the ability of a compound to bind to, and/or activate various retinoid receptor subtypes. When in these assays a compound binds to a given receptor subtype and activates the transcription of a reporter gene through that subtype, then the compound is considered an agonist of that receptor subtype. […] In the below described assays the ability of the compounds to bind to RARα, RARβ, RARγ, RXRα, RXRβ and RXRγ receptors, and the ability or inability of the compounds to activate transcription of a reporter gene through these receptor subtypes can be tested.
(§2) A holoreceptor transactivation assay and a ligand binding assay which measure the antagonist/agonist like activity of the compounds of the invention, or their ability to bind to the several retinoid receptor subtypes, respectively, are described in published PCT Application No. WO WO93/11755 (particularly on pages 30-33 and 37-41) published on Jun. 24, 1993, the specification of which is also incorporated herein by reference. A detailed experimental procedure for holoreceptor transactivations has been described by Heyman et al. Cell 68, 397-406, (1992); Allegretto et al. J. Biol. Chem. 268, 26625-26633, and Mangelsdorf et al. The Retinoids: Biology, Chemistry and Medicine, pp 319-349, Raven Press Ltd., New York, which are expressly incorporated herein by reference. The results obtained in this assay are expressed in EC50 numbers, as they are also in the chimeric receptor transactivation assay. The results of ligand binding assay are expressed in Kd numbers. (See Cheng et al. Biochemical Pharmacology Vol. 22 pp 3099-3108, expressly incorporated herein by reference.)
(§3) The results if the ligand binding assay for several preferred compounds of the invention are included in Table 1.

[4] = target: T3, RARβ (Homo sapiens, UniProt P10826); test: ligand binding assay, RARβ; settings: Kd line of EC50/(EFFICACY)/Kd, read-out: RAR Kd β
T3 sequence (P10826 1-455): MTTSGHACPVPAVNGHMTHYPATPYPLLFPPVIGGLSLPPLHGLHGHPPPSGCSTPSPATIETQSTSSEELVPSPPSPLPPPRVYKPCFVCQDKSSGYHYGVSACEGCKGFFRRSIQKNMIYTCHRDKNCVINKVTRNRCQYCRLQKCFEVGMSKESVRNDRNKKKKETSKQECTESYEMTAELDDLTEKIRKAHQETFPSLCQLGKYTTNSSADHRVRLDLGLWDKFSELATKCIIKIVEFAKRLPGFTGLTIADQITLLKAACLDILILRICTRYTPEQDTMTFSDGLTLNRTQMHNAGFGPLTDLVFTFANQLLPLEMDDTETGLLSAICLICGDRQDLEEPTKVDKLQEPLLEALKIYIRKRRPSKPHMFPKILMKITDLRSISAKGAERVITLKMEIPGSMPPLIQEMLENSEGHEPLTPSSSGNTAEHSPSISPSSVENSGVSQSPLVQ
Excerpt: as §1
as §2, with “A detailed experimental procedure for holoreceptor transactivations has been described by Heyman et al. Cell 68, 397-406, (1992); Allegretto et al. J. Biol. Chem. 268, 26625-26633, and Mangelsdorf et al. The Retinoids: Biology, Chemistry and Medicine, pp 319-349, Raven Press Ltd., New York, which are expressly incorporated herein by reference.” left out

[5] = target: T4, RARγ (Homo sapiens, UniProt P13631); test: ligand binding assay, RARγ; settings: Kd line of EC50/(EFFICACY)/Kd, read-out: RAR Kd γ
T4 sequence (P13631 1-454): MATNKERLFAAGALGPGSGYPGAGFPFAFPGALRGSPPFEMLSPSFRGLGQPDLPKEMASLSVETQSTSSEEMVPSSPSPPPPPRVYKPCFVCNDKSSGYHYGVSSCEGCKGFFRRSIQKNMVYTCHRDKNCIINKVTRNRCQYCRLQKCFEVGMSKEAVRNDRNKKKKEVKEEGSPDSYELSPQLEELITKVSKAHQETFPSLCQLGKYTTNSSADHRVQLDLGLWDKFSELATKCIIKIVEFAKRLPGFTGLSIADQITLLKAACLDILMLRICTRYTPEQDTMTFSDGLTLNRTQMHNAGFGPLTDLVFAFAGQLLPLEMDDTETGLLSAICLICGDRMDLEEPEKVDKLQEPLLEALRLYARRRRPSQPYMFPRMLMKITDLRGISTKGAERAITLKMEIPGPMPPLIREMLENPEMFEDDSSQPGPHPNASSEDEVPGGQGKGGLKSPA
Excerpt: as §1, §2, §3

For `CC1(C)CCC(=O)c2ccc(C#Cc3ccc(CC(=O)O)c(F)c3)cc21` [Compound 15, [2-Fluoro-4-(8,8-dimethyl-5-oxo-5,6,7,8-tetrahydro-naphthalene-2-yl-ethynyl)phenyl]-acetic Acid], the “Cutaneous Toxicity Score (Blackjack Score)” value (shortened to “Cutaneous Toxicity Score”) ([1]; 100 nmole (nmol/25 g)) was 1 ± 1 and the “Cutaneous Toxicity Score” value ([1]; 1000 nmole (nmol/25 g)) was 5 ± 2.
`CN(C1CC1)C1CCC(C)(C)c2cc(C#Cc3ccc(CC(=O)O)c(F)c3)ccc21` (centres unmarked) [Compound 18, [4-(5-(Cyclopropyl-methyl-amino)-8,8-dimethyl-5,6,7,8-tetrahydro-naphthalene-2-yl-ethynyl)-2-fluoro-phenyl]-acetic Acid] was tested, and the IC50 [2] was 1.1 µM, the “Cutaneous Toxicity Score” value ([1]; 100 nmole (nmol/25 g)) was 0 ± 0 and the “Cutaneous Toxicity Score” value ([1]; 300 nmole (nmol/25 g)) was 5 ± 2. For the same molecule, the “Cutaneous Toxicity Score” value ([1]; 1000 nmole (nmol/25 g)) was 10 ± 2.
`CC1(C)CC(C)(C)c2cc(C#Cc3ccc(CC(=O)O)c(F)c3)ccc2O1` [Compound 32, [2-Fluoro-4-(2,2,4,4-tetramethyl-chroman-6-yl-ethynyl)phenyl]acetic Acid] gave an IC50 [2] of 0.18 µM, a Kd [3] of 27 µM and a Kd [4] of 4.22 µM. The Kd [5] was 13 µM.
`CC1(C)CC(C)(C)c2cc(C#Cc3ccc(C(=O)O)cc3)cc(C3CC3)c2O1` [Compound 34, 4-(8-Cyclopropyl-2,2,4,4-tetramethyl-chroman-6-yl-ethynyl)-benzoic Acid] showed an IC50 [2] of 0.13 µM, a Kd [3] of 0.0615 µM and a Kd [4] of 0.015 µM. The Kd [5] was 0.0025 µM.
`CC1(C)CC2(CC2)Oc2ccc(C#Cc3ccc(CC(=O)O)cc3)cc21` [Compound 42, Benzeneacetic Acid, 4-[(3,4-dihydro-4,4-dimethylspiro[2H-1-benzopyran-2,1′-cyclopropane]-6-yl)ethynyl]-] showed an IC50 [2] of 0.19 µM, a Kd [3] of 15 µM and a Kd [4] of 3.64 µM. It also gave a Kd [5] of over 10 µM.
`COC1(c2ccc(C#Cc3ccc(CC(=O)O)cc3)cc2)CC1` [Compound 70, {4-[4-(1-Methoxycyclopropyl)-phenylethynyl]-phenyl}-acetic Acid] gave an IC50 [2] of over 10 µM, a Kd [3] of over 10 µM and a Kd [4] of over 10 µM. The Kd [5] was over 10 µM.
`CC(C)OC1(c2ccc(C#Cc3ccc(CC(=O)O)cc3)cc2)CC1` [Compound 74, {4-[4-(1-Isopropoxycyclopropyl)-phenylethynyl]-phenyl}-acetic Acid] was tested, and the IC50 [2] was 3.5 µM, the Kd [3] was 11 µM and the Kd [4] was 14 µM. The Kd [5] was over 10 µM.
Molecule `O=C(O)c1ccc(C#Cc2ccc(C3(OCc4ccccc4)CC3)cc2)cc1` [Compound 77, 4-[4-(1-Benzyloxycyclopropyl)-phenylethynyl]-benzoic Acid] has an IC50 [2] of over 10 µM, a Kd [3] of 2.21 µM and a Kd [4] of 0.225 µM. It also gave a Kd [5] of 0.016 µM.
With `O=C(O)Cc1ccc(C#Cc2ccc(C3(OCc4ccccc4)CC3)cc2)cc1` [Compound 78, {4-[4-(1-Benzyloxycyclopropyl)-phenylethynyl]-phenyl}-acetic Acid] the IC50 [2] was over 10 µM, the Kd [3] was over 10 µM and the Kd [4] was over 10 µM. It also gave a Kd [5] of over 10 µM.
`Cc1cc(C#Cc2ccc(CC(=O)O)cc2)ccc1C1(OCc2ccccc2)CC1` [Compound 82, {4-[4-(1-Benzyloxycyclopropyl)-3-methyl-phenylethynyl]-phenyl}-acetic Acid] gave an IC50 [2] of over 10 µM, a Kd [3] of over 10 µM and a Kd [4] of over 10 µM. For the same molecule, the Kd [5] was over 10 µM.
In the case of `Cc1cc(C#Cc2ccc(CC(=O)O)cc2)ccc1C1(OC(C)C)CC1` [Compound 86, {4-[4-(1-Isopropoxycyclopropyl)-3-methyl-phenylethynyl]-phenyl}-acetic Acid], the IC50 [2] is reported as 1.4 µM, the Kd [3] is reported as over 10 µM and the Kd [4] is reported as over 10 µM. For the same molecule, the Kd [5] was over 10 µM.
`Cc1cc(C#Cc2ccc(CC(=O)O)cc2)ccc1C1(OCC(C)(C)C)CC1` [Compound 90, {4-[4-[1-(2,2-Dimethylpropyloxy)-cyclopropyl]-3-methyl-phenylethynyl]-phenyl}-acetic Acid] gave an IC50 [2] of 0.95 µM, a Kd [3] of over 10 µM and a Kd [4] of over 10 µM. It also gave a Kd [5] of over 10 µM.
Work on `CCc1cc(C#Cc2ccc(CC(=O)O)cc2)ccc1C1(OCc2ccccc2)CC1` [Compound 94, {4-[4-(1-Benzyloxycyclopropyl)-3-ethyl-phenylethynyl]-phenyl}-acetic Acid] yielded an IC50 [2] of over 10 µM, a Kd [3] of over 10 µM and a Kd [4] of over 10 µM. For the same molecule, the Kd [5] was over 10 µM.
